From patent US20040091935A1, “Strains of Mycoplasma hyorhinis as causative agent for systemic sclerosis” (priority 2002, published 2004)
“Also recorded” adds a separate entry of the source. Starred links: 1 amine or outer side, 2 acyl side, 3 side chain; linkers in the order of their positions; H or OH if unused. Positions of bridges follow the written chain, without caps; N, C: chain ends. Non-standard residues stand in square brackets, D forms with d. Residues, ends and D or L forms follow the SMILES beside them. Chains are numbered I, II in the order given. Actinocin(9to1) = Cc1c2oc3c(C)ccc(C(=O)[*:1])c3nc-2c(C(=O)[*:2])c(N)c1=O; NMeV = CN[C@H](C(=O)O)C(C)C; Sar = CNCC(=O)O

Tested on: Mycoplasma hyorhinis
Assay: Plaque assay of the infectious agent on Vero cell monolayers with antibiotics
Format: cell-based
Details: ciprofloxacin 0.5 mg/ml, doxicycline 1 mg/ml, antibiotic added for 24 hours or 7 days, assay sensitivity 10 pfu/ml, FIG. 12

SMILES | Plaque formation induced by the infectious agent
Cc1c2oc3c(C)ccc(C(=O)N[C@@H]4C(=O)N[C@H](C(C)C)C(=O)N5CCC[C@H]5C(=O)N(C)CC(=O)N(C)[C@@H](C(C)C)C(=O)O[C@@H]4C)c3nc-2c(C(=O)N[C@@H]2C(=O)N[C@H](C(C)C)C(=O)N3CCC[C@H]3C(=O)N(C)CC(=O)N(C)[C@@H](C(C)C)C(=O)O[C@@H]2C)c(N)c1=O [actinomycin D] (I: T[dV]P[Sar][NMeV] / II: T[dV]P[Sar][NMeV]; ester I:1-I:C, II:1-II:C; linker I:N-II:N via Actinocin(9to1)) | prevented plaque formation
C[C@H]1c2cccc(O)c2C(O)=C2C(=O)[C@]3(O)C(O)=C(C(N)=O)C(=O)[C@@H](N(C)C)[C@@H]3[C@@H](O)[C@@H]21 [doxicyclin] | prevented plaque formation; also recorded: inhibited
